Here are results for 105 compounds from ChEMBL document CHEMBL3507680, “University of Dundee, Gates Library screen for HepG2 cell viability”.

The structures appear in SMILES notation.

A short description of the data set: Human HepG2 cell viability assay in 384 well format. It is filed as toxicity, cell-based. Set-up: dose 125 nL, time 70.5 hour; concentration not given beside the values. To be noted: HepG2 cells, read-out: Inhibition.
Consider `CCNC(=O)Nc1c(C)cnn1Cc1cc(F)ccc1F`, for which the cytotoxicity at 70.5 h was -11.6%. The figure for `CNC(=O)CCNC(=O)c1cc(Br)c2c(c1)OCCO2` is -6.67%; for `CCn1cc(C#N)c(=O)c2cc(Br)ccc21` it is -13.9%. Consider `CC(=O)NCCNC(=O)c1cc(Br)c2c(c1)OCCO2`, for which the cytotoxicity at 70.5 h is -11.6%. The figure for `Cc1cnn(C2CN(CC(O)c3ccccc3)C2)c1` (stereo not given) is 27.4%.

Turning to `Cc1ccc(N2CCCC(N(C)Cc3cc(C)on3)C2)nn1` (stereo not given), the cytotoxicity at 70.5 h was -5.56%. The figure for `CCCNC(=O)Cn1cc(C#N)c(=O)c2cc(Br)ccc21` is -8.09%; for `CCCNC(=O)c1cc(Br)c2c(c1)OCCO2` it is -9.42%; for `Cn1nnc(C2(NC(=O)c3ccccc3)CCCC2)n1` it is -8.79%. `CCCC(C)Sc1nnnn1C1CCOCC1` (stereo not given): the cytotoxicity at 70.5 h was -12.8%. `Cc1cc(C2CCCN2C(=O)NCc2cccnc2)on1` (stereo not given): the cytotoxicity at 70.5 h is -7.94%. For the compound `CC(C)OCCSc1nnnn1C1CCOCC1`, the cytotoxicity at 70.5 h was -8.16%. With `Cc1oc(-c2ccco2)nc1CC(=O)NCC(C)(C)N(C)C`, the cytotoxicity at 70.5 h was -8.24%. For the compound `Cc1cc(C2CCCN2C(=O)NCc2cccnc2N(C)C)on1` (stereo not given), the cytotoxicity at 70.5 h turned out to be 23.2%. In the case of `O=C(COC1CCCC1)N1CCCC1c1noc(C2CC2)n1` (stereo not given), the cytotoxicity at 70.5 h was -9.93%. `CC(Sc1nnnn1C1CCOCC1)C(F)(F)F` (stereo not given): the cytotoxicity at 70.5 h was -7.71%.

As for `CC(C)C(=O)Nc1ccc(C(O)Cn2nc(-c3cccs3)oc2=O)cc1` (stereo not given), the cytotoxicity at 70.5 h was determined as 28.2%.

On to `COc1cc(CNC(C)c2cccc(Cl)c2)cc(OC)c1OC` (stereo not given), for which the cytotoxicity at 70.5 h is -9.01%. The figure for `COc1cccc(C2CCCN2C(=O)NCCCn2cccn2)c1` (stereo not given) is -6.25%; for `NC(=O)C1CCCN1Cc1cccc(NC(=O)c2cccs2)c1` (stereo not given) it is 2.36%. Take `O=C(NCCCn1cccn1)N1CCCC1c1ccsc1` (stereo not given): the cytotoxicity at 70.5 h was -9.1%.

For `CCN(C)C(=O)C1(c2ccc(F)cc2F)CCC1`, the cytotoxicity at 70.5 h stood at 4.95%.

Regarding `COC(=O)c1cnc(/C=C/c2ccc(C(=O)O)cc2)s1`, the cytotoxicity at 70.5 h amounted to 0.0314%. Next, `CC(=O)Nc1ccc(/C=C/c2ncc(C(=O)O)s2)cc1`: -1.46%; `CC(C)C(C)NC(=O)CN1CCSCC1` (stereo not given): -2.11%.

Turning to `CCC(CC)NC(=O)CN1CCSCC1`, the cytotoxicity at 70.5 h is 3.72%. Next, `CC(C(=O)N1CCc2ccccc21)N1CCc2cncnc2C1` (stereo not given): -3.31%; `CCNC(=O)CNC(=O)c1ccn(S(=O)(=O)c2ccc(C)cc2)c1`: 1.83%; `Cc1nnc(NCCc2nc3ccc(F)cc3n2C)c(C#N)c1C`: 1.4%.

On to `COc1ccccc1CCNC(=O)CNC1CCc2nc(C)nn2C1` (stereo not given), for which the cytotoxicity at 70.5 h was -0.271%. The figure for `COC(=O)NCC(=O)NCC1(c2c(F)cccc2F)CCCC1` is 1.47%; for `Cn1c(CCNc2nccnc2C#N)nc2ccc(F)cc21` it is 2.09%; for `O=C(CCC1CCCCC1)NS(=O)(=O)CC1CC1` it is 14.7%. The figure for `Cc1nc2n(n1)CC(NCC(=O)NCCCOC(C)C)CC2` (stereo not given) is -0.276%; for `Cc1cc(=O)n(C)cc1NC(=O)Cc1ccc(C(F)(F)F)cc1` it is 0.135%.

For `O=C(Cc1cnn(-c2ccccc2)n1)NC1CCOCC1`, the cytotoxicity at 70.5 h is -0.727%. The figure for `Cc1nc(C)c(C(=O)NCc2nc3cccc(C)c3n2C)o1` is -0.751%; for `CCNc1ncc(C(=O)Nc2nnc(N3CCCCC3)[nH]2)s1` it is -2.41%. With `CC(C)(O)CSCCNC(=O)c1cc(F)ccc1F`, the cytotoxicity at 70.5 h came to 12.9%. Next, `CC(C)(O)CSCCNC(=O)c1ccc(F)cc1Cl`: -2.51%; `CN(Cc1ccccc1NCc1cscn1)C(=O)c1cccs1`: -3.79%.

With `CC(C(=O)N1CCOCC1)N1CCc2cncnc2C1` (stereo not given), the cytotoxicity at 70.5 h was -4.71%. Next, `CCN1CCN(C(=O)C(C)N2CCc3cncnc3C2)CC1` (stereo not given): -4.42%; `Cc1cnc(CN(Cc2ccc(C#N)cc2F)C2CCN(C)C2)o1` (stereo not given): -8.53%.

In the case of `O=C1NCCCCC1NS(=O)(=O)N1CCCCC1` (stereo not given), the cytotoxicity at 70.5 h is -10.6%. Next, `Cc1cc(C)c2c(c1)C(NC(=O)CSCc1ccncc1)CCO2` (stereo not given): -7.37%; `CN(Cc1ccc(C#N)cc1)Cn1nccc1-c1cccnc1`: -4%; `COc1ccccc1C(NC(=O)NC1CC1)c1noc(C)n1` (stereo not given): -9%. The figure for `COc1ccccc1C(NC(=O)C1CCCC1)c1noc(C)n1` (stereo not given) is 1.95%; for `COc1ccccc1C(NC(=O)C1CCC1)c1noc(C)n1` (stereo not given) it is -5.9%.

Turning to `CCC(Nc1ccc(Oc2cccc(C#N)c2)cc1)C(N)=O` (stereo not given), the cytotoxicity at 70.5 h is -12.3%. Next, `Cn1nnc2cc(C(=O)NS(=O)(=O)c3ccc(F)cc3)ccc21`: -3.7%; `OC[C@@H](O)CN(CCC(F)(F)F)c1ncc(Cl)cn1`: -4.91%; `O=S(=O)(Nc1cn[nH]c1)c1ccc(F)c(Br)c1`: -4.68%.

`Cc1cnc(C(C)(C)NC(=O)NCc2ccc(C#N)cc2F)s1`: the cytotoxicity at 70.5 h is -5.64%. Next, `COc1ncccc1NC(=O)NC(C)(C)c1ncc(C)s1`: 16.5%.

On to `Cn1cnc2cc(C(=O)NS(=O)(=O)c3ccc(F)cc3)ccc21`, for which the cytotoxicity at 70.5 h is -5.36%. The figure for `Cc1cnc(C(C)(C)NC(=O)NCc2ccon2)s1` is -9.99%. The figure for `N#Cc1cccc(OCCCN2CCN(C(=O)c3ccoc3)CC2)c1` is -10%; for `OC(CN(Cc1ccccc1)Cc1cccnc1)c1ccco1` (stereo not given) it is 14.4%.

In the case of `CCc1nn(C)c(CC)c1CNC(=O)Nc1cccc([S+](C)[O-])c1` (stereo not given), the cytotoxicity at 70.5 h was 14.6%. Regarding `CCc1nsc(NC2CC(=O)N(C3CC3)C2)n1` (stereo not given), the cytotoxicity at 70.5 h is -0.811%. The figure for `COCC(C)(CCO)NC(=O)Nc1c(F)cccc1Br` (stereo not given) is 1.51%; for `CCCc1noc(CS(=O)(=O)CC(=O)NC(C)CCC)n1` (stereo not given) it is -5.83%; for `COCCCNC(=O)Nc1cccc2ncccc12` it is 30.8%. The figure for `CNS(=O)(=O)c1ccc(CNC(=O)c2cc(C)no2)cc1` is -11.9%; for `O=C(CCS(=O)(=O)C1CCCC1)NCCc1ccc2c(c1)OCCO2` it is -2.36%; for `CCc1ncc(C(=O)N2CCn3c(CC)nnc3C2)s1` it is -13.9%. The figure for `CCc1nnc2n1CCN(C(=O)c1cnc(C3CC3)s1)C2` is -9.47%; for `CS(=O)(=O)CCC(=O)N(Cc1c(F)cccc1F)C1CCCC1` it is 21%; for `CNS(=O)(=O)c1ccc(CNC(=O)c2cc(-c3ccccn3)no2)cc1` it is -8.91%. Consider `CCC(CC)(CC(=O)OC)NC(=O)Nc1nnc(-c2ccccn2)s1`, for which the cytotoxicity at 70.5 h came out at 9.93%. The figure for `Cc1cccc(C2CCCCN2C(=O)CCCS(C)(=O)=O)c1C` (stereo not given) is -9.93%. The figure for `CNS(=O)(=O)CC(=O)N(Cc1c(F)cccc1F)C1CCCC1` is 1.88%. The figure for `CC(C)NC(=O)CN(C)C1CCN(c2cnc3ccccc3n2)CC1` is 20.5%; for `Cc1nsc(NC2CC(=O)N(C(C)(C)C)C2)n1` (stereo not given) it is 11.5%; for `O=C(NCCCF)Nc1ccc2nc(N3CCOCC3)oc2c1` it is 12.5%.

Regarding `CC(C)N(Cc1ccc(C#N)cc1)C(=O)Nc1ccccn1`, the cytotoxicity at 70.5 h is -7.3%. As for `CN(CC1CCCCC1)C(=O)c1cn(C)nc1-c1cccnc1`, the cytotoxicity at 70.5 h was 3.52%. The figure for `CCN(C)C(C(=O)Nc1ccc2c(c1)CCC(=O)N2)c1ccccc1` (stereo not given) is -15.5%; for `O=C1CCCN1CC1CCCCN1C(=O)Nc1cccnc1` (stereo not given) it is -1.1%; for `CC/C=C(/C)C(=O)NCc1ccnc(OC2CCOCC2)c1` it is -9.32%. The figure for `O=S(=O)(CC1CCOCC1)NCc1ncc(-c2ccccc2)o1` is -5.19%; for `CCC(CC(=O)Nc1ccc2c(c1)CC(=O)N2)c1ccccc1` (stereo not given) it is -6.03%; for `FC(F)(F)c1n[nH]c2c1CN(Cc1cn3ccccc3n1)CC2` it is -6.32%. On to `Cc1nc(NC(=O)OC(C)(C)C)sc1C#N`, for which the cytotoxicity at 70.5 h was -6.61%. Regarding `O=C(Nc1ccc(F)cc1)N(CCC(F)(F)F)C[C@H](O)CO`, the cytotoxicity at 70.5 h was -0.146%. The figure for `CCN(CC)S(=O)(=O)N(C)Cc1ccncc1` is -8.49%; for `CC(CCN(C)C)NC(=O)N1CCSC(C)(C)C1` (stereo not given) it is -1.34%. Next, `COc1cccc(NC(=O)N(CCC(F)(F)F)C[C@H](O)CO)c1`: -4.42%; `CN(CC1CCCC1)C(=O)c1cn(C)nc1-c1cccnc1`: -3.43%; `O=C(Nc1ccc(F)cc1F)N(CCC(F)(F)F)C[C@H](O)CO`: -12.9%.

As for `CCOc1ccccc1CNC(=O)NCC(c1cnn(C)c1)N(C)C` (stereo not given), the cytotoxicity at 70.5 h was -9.13%. Next, `COCCc1noc(CN(C)c2cc(C)ncn2)n1`: 17.1%. Regarding `c1cncc(OCCNC2Cc3ccccc3C2)c1`, the cytotoxicity at 70.5 h was -14.1%. The figure for `CN(CC1CCOCC1)C(=O)NCCCN1CCCCC1` is -3.15%; for `Nc1nccnc1C(=O)N1CCN(CCOc2ccccc2)CC1` it is 20.7%; for `COc1ccccc1COCC(O)CN(C)c1ccc(C)cc1C` (stereo not given) it is 15.1%.

As for `CC(=O)NCCC(=O)NC1(c2ccc(Cl)c(Cl)c2)CC1`, the cytotoxicity at 70.5 h was -3.79%. The figure for `Cn1c(SCC(=O)NC(C)(C#N)C2CC2)nc2ccccc21` (stereo not given) is 0.675%; for `Cn1cc(C2CCCN2C(=O)Cn2ccc3ccc(Cl)cc32)cn1` (stereo not given) it is 12.2%; for `Cc1cc(NC(=O)N(C)C2CCN(c3ccccc3F)C2=O)n(C)n1` (stereo not given) it is -0.35%.

Turning to `Cc1cnn(CCNCCCOc2ccc3c(c2)OCO3)c1`, the cytotoxicity at 70.5 h was -0.972%. The figure for `CN(CC(=O)NC(C)(C#N)C1CC1)Cc1nnc(C2CC2)n1C` (stereo not given) is 1.7%; for `COc1ccc(CNC(C)c2cccc(Br)c2)c(OC)c1OC` (stereo not given) it is 17.6%.
